Experimental data taken from ChEMBL document CHEMBL1135960 (Bioorg Med Chem Lett, 2002).
The source made the active and inactive calls. No cut-off for these calls is given here.

Key:
[1] = molecular target: T1, Serotonin 3 (5-HT3) receptor (Homo sapiens) (UniProt P46098+A5X5Y0+O95264+Q70Z44+Q8WXA8); test: Intrinsic activity towards 5-hydroxytryptamine 3 receptor was determined by Benzold-Jarisch reflex (peripheral assay); ANT: antagonist; format: functional; settings: filed as antagonist
[2] = molecular target: T1, Serotonin 3 (5-HT3) receptor (Homo sapiens); test: Intrinsic activity towards CNS 5-hydroxytryptamine 3 receptor was determined; A: agonist; format: functional; settings: filed as agonist
[3] = molecular target: Serotonin 3 (5-HT3) receptor; test: Binding affinity towards 5-hydroxytryptamine 3 receptor; format: protein-complex assay
[4] = molecular target: T1, Serotonin 3 (5-HT3) receptor (Homo sapiens); test: Intrinsic activity towards 5-hydroxytryptamine 3 receptor was determined by Benzold-Jarisch reflex (peripheral assay); A: agonist; format: functional; settings: filed as agonist
[5] = molecular target: T1, Serotonin 3 (5-HT3) receptor (Homo sapiens); test: Intrinsic activity towards 5-hydroxytryptamine 3 receptor was determined by Benzold-Jarisch reflex (peripheral assay); PA: Partial agonist; format: functional; settings: filed as partial agonist
[6] = molecular target: T1, Serotonin 3 (5-HT3) receptor (Homo sapiens); test: Intrinsic activity towards CNS 5-hydroxytryptamine 3 receptor was determined; ANT: Antagonist; format: functional; settings: filed as antagonist
[7] = test system: Serotonin 3 (5-HT3) receptor; test: Binding affinity of compound towards 5-hydroxytryptamine 3 receptor; NA: not active; format: protein-complex assay
[8] = molecular target: T1, Serotonin 3 (5-HT3) receptor (Homo sapiens); test: Intrinsic activity towards CNS 5-hydroxytryptamine 3 receptor was determined; NA: not active; format: protein-complex assay

| SMILES | Intrinsic activity [2] | Ki [3] | Intrinsic activity [4] | other results |
| --- | --- | --- | --- | --- |
| CN1CCN(c2nc3ccccc3n3cccc23)CC1 | Agonist | 0.23 nM | – | Intrinsic activity [1]: Antagonist |
| N=C(N)NC(=N)Nc1cccc(Cl)c1 | Agonist | – | Agonist | – |
| NCCc1c[nH]c2ccc(O)cc12 | Agonist | – | Agonist | – |
| O=[N+]([O-])c1ccc2nc(N3CCNCC3)ccc2c1 [6-NITROQUIPAZINE] | – | 58 nM | – | Intrinsic activity [1]: Antagonist |
| N=C(N)NC(=N)Nc1ccccc1 | Agonist | – | Agonist | – |
| CN1CCN(c2nc3ccccc3c3c2CCCC3)CC1 | – | 0.23 nM | – | – |
| NC1CCN(c2cccc(Cl)n2)CC1 | Agonist | 103 nM | – | – |
| c1ccc2nc(N3CCNCC3)ccc2c1 | Agonist | – | – | Intrinsic activity [5]: Partial agonist |
| CN1CCN(c2nc3ccccc3c3ccccc23)CC1 | Agonist | 1.9 nM | – | – |
| Clc1ccc2ccc(N3CCNCC3)nc2c1 | – | 38 nM | – | Intrinsic activity [1]: Antagonist |
| CN1CCN(c2nc3ccccc3c3c2CC2CCC3C2)CC1 (stereo not drawn) | – | 0.83 nM | – | Intrinsic activity [6]: Antagonist |
| Cc1[nH]c2ccc(O)cc2c1CCN | Agonist | – | Agonist | – |
| CN1CCN(c2cc3cc(F)ccc3n3cccc23)CC1 | Agonist | 0.51 nM | – | Intrinsic activity [1]: Antagonist |
| CN1CCN(c2cc3cc(C(F)(F)F)ccc3n3cccc23)CC1 | – | – | – | Intrinsic activity [1]: Antagonist; Ki [7]: Not Active; Intrinsic activity [8]: inactive |
| N=C(N)Nc1ccc2ccccc2c1 | – | – | Agonist | – |
| N=C(N)Nc1cccc(Cl)c1 | – | – | Agonist | – |
| N=C(N)NC(=N)Nc1ccc2ccccc2c1 | – | – | Agonist | – |
